Measured values from patent US11987588B2, “Modulators of the beta-3 adrenergic receptor useful for the treatment or prevention of heart failure and disorders related thereto” (Arena Pharmaceuticals, Inc., priority 2017, dated 2024).

These molecules were tested against Beta-3 Adrenergic Receptor (Homo sapiens (Human), UniProt P13945) (assay: Homogeneous Time-Resolved Fluorescence (HTRF) cAMP antagonist assay, IC50 determination). Conditions: CHO-K1 cells stably expressing recombinant receptor, isoproterenol at EC90.
Beta-3 Adrenergic Receptor, sequence (P13945 whole entry, species assumed): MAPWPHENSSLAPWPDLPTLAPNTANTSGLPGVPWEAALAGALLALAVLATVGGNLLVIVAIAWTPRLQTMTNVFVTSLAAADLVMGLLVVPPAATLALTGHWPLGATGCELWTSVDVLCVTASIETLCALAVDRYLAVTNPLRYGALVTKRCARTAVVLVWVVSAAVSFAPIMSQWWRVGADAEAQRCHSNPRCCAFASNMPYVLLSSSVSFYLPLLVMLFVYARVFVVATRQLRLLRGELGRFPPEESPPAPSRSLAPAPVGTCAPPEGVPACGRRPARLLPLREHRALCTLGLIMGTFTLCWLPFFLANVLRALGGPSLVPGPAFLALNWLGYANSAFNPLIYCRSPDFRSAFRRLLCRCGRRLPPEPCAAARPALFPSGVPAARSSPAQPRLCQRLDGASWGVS
Type: cell-based
Method in brief: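 CHO-K1 cells stably expressing receptor, 1500 cells/well, preincubated briefly with 10-point 5-fold compound series (top final typically 10 or 100 μM) in PBS with 1 mM IBMX, then challenged with isoproterenol at EC90 for 1 h at room temperature. cAMP read by HTRF against on-plate standard curve; IC50 from dose-response.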

First: CNS(=O)(=O)c1cccc(OC[C@@H](O)CNC2COC3(CCN(S(=O)(=O)c4ccc(C(=O)N(C)C)cc4)CC3)C2)c1 (stereo partly drawn) [Compound 24, 4-(3-((S)-2-hydroxy-3-(3-(N-methylsulfamoyl)phenoxy)propylamino)-1-oxa-8-azaspiro[4.5]decan-8-ylsulfonyl)-N,N-dimethylbenzamide]
Second: CNS(=O)(=O)c1cccc(OC[C@@H](O)CNC2COC3(CCN(S(=O)(=O)c4ccc(C)cc4)CC3)C2)c1 (stereo partly drawn) [Compound 53, 3-((2S)-2-hydroxy-3-(8-tosyl-1-oxa-8-azaspiro[4.5]decan-3-ylamino)propoxy)-N-methylbenzenesulfonamide]
The IC50 of the first is 4.9-fold higher: 106 nM for the first, 21.8 nM for the second. The second is the more potent here.

Compared with `CNS(=O)(=O)c1cccc(OC[C@@H](O)CN[C@H]2COC3(CCN(S(=O)(=O)c4cnc5ccc(F)cc5c4O)CC3)C2)c1` [Compound 534, 3-((S)-3-((R)-8-(6-fluoro-4-hydroxyquinolin-3-ylsulfonyl)-1-oxa-8-azaspiro[4.5]decan-3-ylamino)-2-hydroxypropoxy)-N-methylbenzenesulfonamide], `CNS(=O)(=O)c1cccc(OC[C@@H](O)CN[C@H]2COC3(CCN(S(=O)(=O)c4cnc5ccn(C)c5c4)CC3)C2)c1` [Compound 526, 3-((S)-2-hydroxy-3-((R)-8-(1-methyl-1H-pyrrolo[3,2-b]pyridin-6-ylsulfonyl)-1-oxa-8-azaspiro[4.5]decan-3-ylamino)propoxy)-N-methylbenzenesulfonamide] is 3-fold lower in IC50: 20.8 nM for the first, 6.97 nM for the second. The second is the more potent here.

Going from `CN(C)S(=O)(=O)c1cccc(OC[C@@H](O)CNC2COC3(CCN(S(=O)(=O)c4ccc5c(c4)CCCC5)CC3)C2)c1` (stereo partly drawn) [Compound 253, 3-((2S)-2-hydroxy-3-(8-(5,6,7,8-tetrahydronaphthalen-2-ylsulfonyl)-1-oxa-8-azaspiro[4.5]decan-3-ylamino)propoxy)-N,N-dimethylbenzenesulfonamide] to `CNS(=O)(=O)c1cccc(OC[C@@H](O)CNC2COC3(CCN(S(=O)(=O)c4ccc5[nH]ncc5c4)CC3)C2)c1` (stereo partly drawn) [Compound 325, 3-((2S)-3-(8-(1H-indazol-5-ylsulfonyl)-1-oxa-8-azaspiro[4.5]decan-3-ylamino)-2-hydroxypropoxy)-N-methylbenzenesulfonamide], the IC50 rises from 22.6 nM to 42.7 nM (1.9-fold). The first is the more potent here.

`CNS(=O)(=O)c1cccc(OC[C@@H](O)CNC2COC3(CCN(S(=O)(=O)c4cccc(-c5cccc(S(C)(=O)=O)c5)c4)CC3)C2)c1` (stereo partly drawn) [Compound 71, 3-((2S)-2-hydroxy-3-(8-(3′-(methylsulfonyl)biphenyl-3-ylsulfonyl)-1-oxa-8-azaspiro[4.5]decan-3-ylamino)propoxy)-N-methylbenzenesulfonamide] and `CNS(=O)(=O)c1cccc(OC[C@@H](O)CN[C@H]2COC3(CCN(S(=O)(=O)c4cnc5c(c4)NCCO5)CC3)C2)c1` [Compound 444, 3-((S)-3-((R)-8-(2,3-dihydro-1H-pyrido[2,3-b][1,4]oxazin-7-ylsulfonyl)-1-oxa-8-azaspiro[4.5]decan-3-ylamino)-2-hydroxypropoxy)-N-methylbenzenesulfonamide] are within 1.5-fold of each other in IC50: 31.2 nM for the first, 31.8 nM for the second.

First: Cc1c(S(=O)(=O)N2CCC3(CC2)CC(NC[C@H](O)COc2cccc(S(=O)(=O)NCCCN(C)C)c2)CO3)cnn1-c1ccccc1 (stereo partly drawn) [Compound 313, N-(3-(dimethylamino)propyl)-3-((2S)-2-hydroxy-3-(8-(5-methyl-1-phenyl-1H-pyrazol-4-ylsulfonyl)-1-oxa-8-azaspiro[4.5]decan-3-ylamino)propoxy)benzenesulfonamide]
Second: CNS(=O)(=O)c1cccc(OC[C@@H](O)CN[C@H]2COC3(CCN(c4nc(OC)cc(OC)n4)CC3)C2)c1 [Compound 584, 3-((S)-3-((R)-8-(4,6-dimethoxypyrimidin-2-yl)-1-oxa-8-azaspiro[4.5]decan-3-ylamino)-2-hydroxypropoxy)-N-methylbenzenesulfonamide]
The IC50 of the first is 15-fold higher: 4010 nM for the first, 266 nM for the second. The second is the more potent here.

For `CNS(=O)(=O)c1cccc(OC[C@@H](O)CN[C@H]2COC3(CCN(c4nccc(C(F)(F)F)n4)CC3)C2)c1` [Compound 574, 3-((S)-2-hydroxy-3-((R)-8-(4-(trifluoromethyl)pyrimidin-2-yl)-1-oxa-8-azaspiro[4.5]decan-3-ylamino)propoxy)-N-methylbenzenesulfonamide], the IC50 was 609 nM.
